The structures appear in SMILES notation.

This experiment relates to Jurkat cells. The experiment in a line: Annexin V / 7-AAD staining of treated Jurkat cells, evaluated by flow cytometry and fluorescence microscopy. The class given is cell-based, Human. The conditions noted are these: Jurkat T cells, Alexa Fluor 488 annexin V and 7-AAD. The procedure: Human acute T leukemic Jurkat cell line was obtained from ATCC (Rockville, Md.; catalog number CRL-1990) and maintained in RPMI 1640 (Gibco, Grand Island, N.Y.) containing 5% fetal bovine serum, 1 mM sodium pyruvate (Mediatech, Herndon, Va.), 100 µM nonessential amino acids, 100 U/ml penicillin, 100 µg/ml streptomycin, and 2 mM L-glutamine (BioWhittaker, Walkersville, Md.) in 5% CO2 atmosphere at 37 degrees C. The density of exponentially growing cells was less than 3×10^5 cells per ml at the time of all treatments. To induce apoptosis, cells were treated for 18 hours with 1 µM camptothecin (CPT, Sigma), a DNA topoisomerase I inhibitor. […]
Control (untreated) cell, CPT treated (apoptotic) cells, and peroxide treated (necrotic) cells were independently counted and washed once in phosphate buffered saline (PBS, Fair Lawn, N.J.). […] Each cell group was washed in annexin V Binding Buffer, fixed in 2% paraformaldehyde (Sigma), and analyzed as either single populations or as a mixture by flow cytometry and immunofluorescence microscopy.
For flow cytometry, cell fluorescence data excited by a 488 nm laser were acquired using the FACSort™ cytometer (BD Immunocytometry Systems, San Jose, Calif.) and analyzed using CellQuest™ (BD Immunocytometry Systems). […]
(In general: Flow cytometry measures light scatter and fluorescence of single cells or particles in a stream.)

As to `CC[C@@]1(O)C(=O)OCc2c1cc1n(c2=O)Cc2cc3ccccc3nc2-1` [CPT, camptothecin], where the note is “1 µM CPT for 18 hours, FIG. 2B”, the “annexin V / 7-AAD staining of treated cells (apoptosis induction)” value was “two populations of cells, those that were annexin V^+ (single positive, SP, or early apoptotic cells), and those that were annexin V^+, 7-AAD^+ (double positive, DP, or late apoptotic cells)”.
For `OO` [peroxide, hydrogen peroxide], the “annexin V / 7-AAD staining of treated cells (necrosis induction)” value (0.3% hydrogen peroxide for 1 hour, FIG. 2C) was “stained positively with both annexin V and 7-AAD”.

(Values after patent US8175371B2, “Method for imaging and differential analysis of cells” (Amnis Corporation, priority 2004, dated 2012).)
